The values below come from patent US7026333B1, “Retroviral protease inhibitors” (G. D. Searle & Co., priority 1999, dated 2006).

Usually EC50 stands for the concentration at which the effect is half-maximal. A word on the IC50: it is the concentration needed to halve the response being measured.

One data set has as its system CEM cells. The experiment in a line: CEM cell assay, intrinsic toxicity of test compound without virus (MTT). In kind it is cell-based. The note with it: 7 days, concentration reducing cellular viability by 50%. The procedure: (§1) The effectiveness of the compounds tested in Part A was also determined in a CEM cell assay. The HIV inhibition assay method of acutely infected cells is an automated tetrazolium based colorimetric assay essentially that reported by Pauwles et al, J. Virol. Methods 20, 309–321 (1988). Assays were performed in 96-well tissue culture plates. CEM cells, a CD4 cell line, were grown in RPMI-1640 medium (Gibco) supplemented with a 10% fetal calf serum and were then treated with polybrene ([…]). An 80 μL volume of medium containing 1×10^4 cells was dispensed into each well of the tissue culture plate. To each well was added a 100 μL volume of test compound dissolved in tissue culture medium (or medium without test compound as a control) to achieve the desired final concentration and the cells were incubated at 37° C. for 1 hour. A frozen culture of HIV-1 was diluted in culture medium to a concentration of 5×10^4 TCID50 per mL (TCID50=the dose of virus that infects 50% of cells in tissue culture), and a 20 μL volume of the virus sample (containing 1000 TCID50 of virus) was added to wells containing test compound and to wells containing only medium (infected control cells). Several wells received culture medium without virus (uninfected control cells). Likewise, the intrinsic toxicity of the test compound was determined by adding medium without virus to several wells containing test compound. In summary, the tissue culture plates contained the following experiments:
In experiments 2 and 4, the final concentrations of test compounds were 1, 10, 100 and 500 μg/mL. Either azidothymidine (AZT) or dideoxyinosine (ddI) was included as a positive drug control. […] DMSO was added to all control wells at an appropriate concentration.
Following the addition of virus, cells were incubated at 37° C. in a humidified, 5% CO2 atmosphere for 7 days. Test compounds could be added on days 0, 2 and 5 if desired. On day 7, post-infection, the cells in each well were resuspended and a 100 μL sample of each cell suspension was removed for assay. A 20μL volume of a 5 mg/mL solution of 3-(4,5-dimethylthiazol-2-yl)-2,5-diphenyltetrazolium bromide (MTT) was added to each 100 μL cell suspension, and the cells were incubated for 4 hours at […] in a 5% CO2 environment. […] To each sample was added […] of 10% sodium dodecylsulfate in 0.01 N HCl to lyse the cells, and samples were incubated overnight. The absorbance at 590 nm was determined for each sample using a Molecular Devices microplate reader. Absorbance values for each set of wells is compared to assess viral control infection, uninfected control cell response as well as test compound by cytotoxicity and antiviral efficacy.
The calculated EC50 (effective concentration 50%, i.e., the concentration at which the inhibitor compound reduces cytopathicity by 50%) and TD50 (toxic dose 50%, i.e., the concentration at which the inhibitor compound reduces cellular viability by 50%) values for these compounds are also shown in Table 1.

For a further data set, the system named is HIV-1. As to the kind of experiment: CEM cell assay, HIV inhibition in acutely infected cells (MTT). It counts as cell-based. Particulars: Human immunodeficiency virus 1, CCRF-CEM, 168 h; CEM cells acutely infected with HIV-1, 7 days; concentration reducing cytopathicity by 50%; read-out: Antiviral Activity in Cell Culture (EC50). The protocol: as §1, with “A frozen culture of HIV-1 was diluted in culture medium to a concentration of 5×10^4 TCID50 per mL (TCID50=the dose of virus that infects 50% of cells in tissue culture), and a 20 μL volume of the virus sample (containing 1000 TCID50 of virus) was added to wells containing test compound and to wells containing only medium (infected control cells). Several wells received culture medium without virus (uninfected control cells).” left out, “In summary, the tissue culture plates contained the following experiments:” left out
Following the addition of virus, cells were incubated at 37° C. in a humidified, 5% CO2 atmosphere for 7 days. […] The absorbance at 590 nm was determined for each sample using a Molecular Devices microplate reader. Absorbance values for each set of wells is compared to assess viral control infection, uninfected control cell response as well as test compound by cytotoxicity and antiviral efficacy. […]

A further data set concerns the target T1, HIV protease (Human immunodeficiency virus type 1 group M subtype B, UniProt P04585).
T1 construct: HIV protease is diluted in the assay buffer to a final enzyme concentration of 12.3 nanomolar, based on a molecular weight of 10,780
The experiment in a line: Enzyme assay (HIV protease, fluorogenic substrate 2-aminobenzoyl-Ile-Nle-Phe(p-NO2)-Gln-ArgNH2). In kind it is biochemical. Particulars: HIV protease 12.3 nanomolar, substrate 80 μM, pH 6.4; read-out: Enzyme Inhibition (IC50). The procedure:
The calculated IC50 (inhibiting concentration 50%, i.e., the concentrations at which the inhibitor compound reduces enzyme activity by 50%) values are shown in Table 1. The enzyme method is described below. The substrate is 2-aminobenzoyl-Ile-Nle-Phe(p-NO2)-Gln-ArgNH2. The positive control is MVT-101 (Miller, M. et al, Science, 246, 1149 (1989)] The assay conditions are as follows:
Assay buffer: 20 mM sodium phosphate, pH 6.4
• 20% glycerol • 1 mM EDTA • 1 mM DTT • 0.1% CHAPS
The above described substrate is dissolved in DMSO, then diluted 10 fold in assay buffer. Final substrate concentration in the assay is 80 μM.
HIV protease is diluted in the assay buffer to a final enzyme concentration of 12.3 nanomolar, based on a molecular weight of 10,780.
The final concentration of DMSO is 14% and the final concentration of glycerol is 18%. The test compound is dissolved in DMSO and diluted in DMSO to 10× the test concentration; 10 μL of the enzyme preparation is added, the materials mixed and then the mixture is incubated at ambient temperature for 15 minutes. The enzyme reaction is initiated by the addition of 40 μL of substrate. The increase in fluorescence is monitored at 4 time points (0, 8, 16 and 24 minutes) at ambient temperature. Each assay is carried out in duplicate wells.

On to `C[C@@H](C(=O)N[C@@H](Cc1ccccc1)[C@H](O)CN1C[C@H]2CCCC[C@H]2C[C@H]1C(=O)NC(C)(C)C)C(C)(C)C(N)=O`, for which the “Cell Toxicity (TD50)” value in the data set on CEM cells was 59,000 nM. Besides, in the data set on HIV-1, the EC50 is 0.098 µM. Also, the IC50 on HIV protease was determined as 0.009 µM.

`CC(C)(C)NC(=O)[C@@H]1C[C@@H]2CCCC[C@@H]2CN1C[C@@H](O)[C@H](Cc1ccccc1)NC(=O)C[C@H](NC(=O)c1ccc2ccccc2n1)C(N)=O`: in the data set with CEM cells, the “Cell Toxicity (TD50)” value is on record as 5,000 nM.

For the compound `COc1ccc(COC(=O)NC[C@@H](C)C(=O)N[C@@H](Cc2ccccc2)[C@H](O)CN2C[C@H]3CCCC[C@H]3C[C@H]2C(=O)NC(C)(C)C)cc1`, the “Cell Toxicity (TD50)” value in the data set on CEM cells is 2,000 nM.

As for `C[C@@H](C(=O)N[C@@H](Cc1ccccc1)[C@H](O)CN1C[C@H]2CCCC[C@H]2C[C@H]1C(=O)NC(C)(C)C)C(C)(C)C(=O)O`, the “Cell Toxicity (TD50)” value in the data set with CEM cells is listed as 50,000 nM.

In the case of `C[C@H](CS(C)(=O)=O)C(=O)N[C@@H](Cc1ccccc1)[C@H](O)CN1C[C@H]2CCCC[C@H]2C[C@H]1C(=O)NC(C)(C)C`, the “Cell Toxicity (TD50)” value in the data set on CEM cells is 58,000 nM.
